Data: patent US4482709A, “Inclusion compounds of cyclodextrin with sulfur-containing compounds” (Santen Pharmaceutical Co., Ltd., priority 1981, dated 1984)
Values after ≈ are worked out from the molar mass of the structure shown.

Assay: Solubility Test (solubility in water)
Format: physicochemical
Source text: Solubility in water of inclusion compound of cyclodextrin with compound A or compound C is shown below. As the result, the inclusion compound is extremely more soluble in water than the starting compound.

| solubility | SMILES |
| --- | --- |
| 1600 µg/mL (≈ 5110 µM) | O=C(O)[C@@H]1CS[C@H](c2ccccc2O)N1C(=O)CCS [Compound A, (2R,4R)-2-(2-hydroxyphenyl)-3-(3-mercaptopropanoyl)-4-thiazolidinecarboxylic acid] |
| 100 µg/mL (≈ 160 µM) | O=C(O)[C@@H]1CSC(c2ccccc2O)N1C(=O)CCSSCCC(=O)N1C(c2ccccc2O)SC[C@H]1C(=O)O (stereo partly drawn) [Compound C, (4R,4'R)-3,3'-[3,3'-dithiobis(propanoyl)]bis[2-(2-hydroxyphenyl)-4-thiazolidinecarboxylic acid]] |
